Measurements from article PMC5392334, “Discovery and characterization of a novel irreversible EGFR mutants selective and potent kinase inhibitor CHMFL-EGFR-26 with a distinct binding mode” (Oncotarget, 2017).

Experiments:
[1] = target: T1, ABL1(M351T)-phosphorylated (Homo sapiens, UniProt P00519, M351T); assay: KinomeScan; assay type: binding; settings: read-out: % control
T1 construct: purchased DiscoveRx KINOMEscan

[2] = target: T2, ABL1(Q252H)-nonphosphorylated (Homo sapiens, UniProt P00519, Q252H); assay: KinomeScan; assay type: binding; settings: read-out: % control
T2 construct: purchased DiscoveRx KINOMEscan

ALK(L1196M) = target: T3, ALK(L1196M) (Homo sapiens, UniProt Q9UM73, L1196M); assay: KinomeScan; assay type: binding; settings: read-out: % control
T3 construct: purchased DiscoveRx KINOMEscan

ANKK1 = target: T4, ANKK1 (Homo sapiens, UniProt Q8NFD2); assay: KinomeScan; assay type: binding; settings: read-out: % control
T4 construct: purchased DiscoveRx KINOMEscan
T4 sequence (Q8NFD2 whole entry): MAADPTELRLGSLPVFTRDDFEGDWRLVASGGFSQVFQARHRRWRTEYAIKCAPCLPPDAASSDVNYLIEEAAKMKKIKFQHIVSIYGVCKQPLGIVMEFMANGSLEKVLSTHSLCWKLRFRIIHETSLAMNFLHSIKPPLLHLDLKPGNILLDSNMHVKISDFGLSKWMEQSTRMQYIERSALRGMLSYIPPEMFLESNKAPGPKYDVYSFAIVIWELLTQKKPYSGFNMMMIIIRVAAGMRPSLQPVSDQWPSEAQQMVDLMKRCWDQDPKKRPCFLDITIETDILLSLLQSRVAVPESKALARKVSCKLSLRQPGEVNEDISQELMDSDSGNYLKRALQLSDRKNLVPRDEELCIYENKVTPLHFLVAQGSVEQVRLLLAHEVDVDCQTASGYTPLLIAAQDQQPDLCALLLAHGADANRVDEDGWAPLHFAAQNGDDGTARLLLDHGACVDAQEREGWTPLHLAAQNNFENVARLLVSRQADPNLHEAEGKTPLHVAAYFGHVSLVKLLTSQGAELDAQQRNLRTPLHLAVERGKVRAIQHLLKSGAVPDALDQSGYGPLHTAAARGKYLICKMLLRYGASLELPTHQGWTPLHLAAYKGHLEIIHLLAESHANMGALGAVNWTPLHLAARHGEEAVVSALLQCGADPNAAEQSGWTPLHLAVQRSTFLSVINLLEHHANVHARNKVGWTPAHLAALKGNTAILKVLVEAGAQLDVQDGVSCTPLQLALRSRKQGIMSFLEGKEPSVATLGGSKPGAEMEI

BIKE = target: T5, BIKE (Homo sapiens, UniProt Q9NSY1); assay: KinomeScan; assay type: binding; settings: read-out: % control
T5 construct: purchased DiscoveRx KINOMEscan

BRAF(V600E) = target: T6, BRAF(V600E) (Homo sapiens, UniProt P15056, V600E); assay: KinomeScan; assay type: binding; settings: read-out: % control
T6 construct: purchased DiscoveRx KINOMEscan

CAMKK2 = target: T7, CAMKK2 (Homo sapiens, UniProt Q96RR4); assay: KinomeScan; assay type: binding; settings: read-out: % control
T7 construct: purchased DiscoveRx KINOMEscan
T7 sequence (Q96RR4 whole entry): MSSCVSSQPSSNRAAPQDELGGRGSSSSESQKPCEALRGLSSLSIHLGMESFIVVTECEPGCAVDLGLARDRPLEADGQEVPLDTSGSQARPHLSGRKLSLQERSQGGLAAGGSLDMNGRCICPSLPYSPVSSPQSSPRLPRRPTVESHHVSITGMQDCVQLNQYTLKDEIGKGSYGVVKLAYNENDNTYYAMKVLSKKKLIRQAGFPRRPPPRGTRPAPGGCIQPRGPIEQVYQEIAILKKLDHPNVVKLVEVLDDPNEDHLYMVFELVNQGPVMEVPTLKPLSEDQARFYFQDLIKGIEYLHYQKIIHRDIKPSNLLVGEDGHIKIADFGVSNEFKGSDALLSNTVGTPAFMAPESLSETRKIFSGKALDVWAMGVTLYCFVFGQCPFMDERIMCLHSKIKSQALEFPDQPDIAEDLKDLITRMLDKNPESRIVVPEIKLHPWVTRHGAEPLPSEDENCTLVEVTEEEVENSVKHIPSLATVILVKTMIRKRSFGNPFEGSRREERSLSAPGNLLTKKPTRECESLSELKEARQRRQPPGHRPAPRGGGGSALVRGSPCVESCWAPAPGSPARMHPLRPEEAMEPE

CIT = target: T8, CIT (Homo sapiens, UniProt O14578); assay: KinomeScan; assay type: binding; settings: read-out: % control
T8 construct: purchased DiscoveRx KINOMEscan

CLK3 = target: T9, CLK3 (Homo sapiens, UniProt P49761); assay: KinomeScan; assay type: binding; settings: read-out: % control
T9 construct: purchased DiscoveRx KINOMEscan

[3] = target: T10, EGFR(L747-S752del, P753S) (Homo sapiens, UniProt P00533, DEL747-752/P753S); assay: KinomeScan; assay type: binding; settings: read-out: % control
T10 construct: purchased DiscoveRx KINOMEscan
T10 sequence (P00533 with tags, fused parts or gaps DEL747-752/P753S limits assumed): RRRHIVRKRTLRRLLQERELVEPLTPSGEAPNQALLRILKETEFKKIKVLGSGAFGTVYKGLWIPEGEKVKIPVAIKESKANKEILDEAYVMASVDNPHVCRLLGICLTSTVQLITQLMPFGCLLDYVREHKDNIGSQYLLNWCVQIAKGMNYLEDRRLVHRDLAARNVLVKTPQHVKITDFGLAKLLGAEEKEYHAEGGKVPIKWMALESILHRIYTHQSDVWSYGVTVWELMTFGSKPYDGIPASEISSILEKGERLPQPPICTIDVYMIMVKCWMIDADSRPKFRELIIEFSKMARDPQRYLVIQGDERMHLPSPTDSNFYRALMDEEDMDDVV

FLT3(ITD,F691L) = assay: KinomeScan; assay type: binding; settings: 1μM
GCN2(Kin.Dom.2,S808G) = target: T11, GCN2(Kin.Dom.2,S808G) (Homo sapiens, UniProt Q9P2K8, S808G); assay: KinomeScan; assay type: binding; settings: read-out: % control
T11 construct: GCN2(Kin.Dom.2,S808G); purchased DiscoveRx KINOMEscan

GSK3A = target: T12, GSK3A (Homo sapiens, UniProt P49840); assay: KinomeScan; assay type: binding; settings: read-out: % control
T12 construct: purchased DiscoveRx KINOMEscan
T12 sequence (P49840 whole entry): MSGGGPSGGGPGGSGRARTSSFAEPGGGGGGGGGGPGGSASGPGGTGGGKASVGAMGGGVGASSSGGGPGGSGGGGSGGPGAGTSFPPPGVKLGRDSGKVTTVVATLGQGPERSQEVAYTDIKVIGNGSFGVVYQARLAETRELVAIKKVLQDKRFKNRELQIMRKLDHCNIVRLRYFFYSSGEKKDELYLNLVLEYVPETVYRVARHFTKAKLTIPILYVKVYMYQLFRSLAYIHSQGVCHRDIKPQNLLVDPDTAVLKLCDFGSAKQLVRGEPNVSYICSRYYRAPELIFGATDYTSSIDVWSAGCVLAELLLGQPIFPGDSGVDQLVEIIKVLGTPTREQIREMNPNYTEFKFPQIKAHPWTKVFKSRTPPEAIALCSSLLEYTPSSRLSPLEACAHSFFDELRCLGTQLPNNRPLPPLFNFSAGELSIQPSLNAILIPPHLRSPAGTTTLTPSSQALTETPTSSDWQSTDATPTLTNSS

HIPK4 = target: T13, HIPK4 (Homo sapiens, UniProt Q8NE63); assay: KinomeScan; assay type: binding; settings: read-out: % control
T13 construct: purchased DiscoveRx KINOMEscan

HPK1 = target: T14, HPK1 (Homo sapiens, UniProt Q92918); assay: KinomeScan; assay type: binding; settings: read-out: % control
T14 construct: purchased DiscoveRx KINOMEscan

LIMK2 = target: T15, LIMK2 (Homo sapiens, UniProt P53671); assay: KinomeScan; assay type: binding; settings: read-out: % control
T15 construct: purchased DiscoveRx KINOMEscan

MAP3K15 = target: T16, MAP3K15 (Homo sapiens, UniProt Q6ZN16); assay: KinomeScan; assay type: binding; settings: read-out: % control
T16 construct: purchased DiscoveRx KINOMEscan

MAP4K3 = target: T17, MAP4K3 (Homo sapiens, UniProt Q8IVH8); assay: KinomeScan; assay type: binding; settings: read-out: % control
T17 construct: purchased DiscoveRx KINOMEscan

MAPKAPK5 = target: T18, MAPKAPK5 (Homo sapiens, UniProt Q8IW41); assay: KinomeScan; assay type: binding; settings: read-out: % control
T18 construct: purchased DiscoveRx KINOMEscan

MEK6 = target: T19, MEK6 (Homo sapiens, UniProt P52564); assay: KinomeScan; assay type: binding; settings: read-out: % control
T19 construct: purchased DiscoveRx KINOMEscan
T19 sequence (P52564 whole entry): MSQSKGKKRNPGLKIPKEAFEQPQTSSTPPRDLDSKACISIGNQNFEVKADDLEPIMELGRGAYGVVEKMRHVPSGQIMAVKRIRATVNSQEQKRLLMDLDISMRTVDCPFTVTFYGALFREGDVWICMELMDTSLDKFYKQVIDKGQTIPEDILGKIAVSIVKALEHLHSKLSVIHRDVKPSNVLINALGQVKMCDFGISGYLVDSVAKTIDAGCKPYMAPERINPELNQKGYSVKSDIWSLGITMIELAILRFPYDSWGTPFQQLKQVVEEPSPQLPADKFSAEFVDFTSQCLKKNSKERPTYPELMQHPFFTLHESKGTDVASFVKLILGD

OSR1 = target: T20, OSR1 (Homo sapiens, UniProt O95747); assay: KinomeScan; assay type: binding; settings: read-out: % control
T20 construct: purchased DiscoveRx KINOMEscan
T20 sequence (O95747 whole entry): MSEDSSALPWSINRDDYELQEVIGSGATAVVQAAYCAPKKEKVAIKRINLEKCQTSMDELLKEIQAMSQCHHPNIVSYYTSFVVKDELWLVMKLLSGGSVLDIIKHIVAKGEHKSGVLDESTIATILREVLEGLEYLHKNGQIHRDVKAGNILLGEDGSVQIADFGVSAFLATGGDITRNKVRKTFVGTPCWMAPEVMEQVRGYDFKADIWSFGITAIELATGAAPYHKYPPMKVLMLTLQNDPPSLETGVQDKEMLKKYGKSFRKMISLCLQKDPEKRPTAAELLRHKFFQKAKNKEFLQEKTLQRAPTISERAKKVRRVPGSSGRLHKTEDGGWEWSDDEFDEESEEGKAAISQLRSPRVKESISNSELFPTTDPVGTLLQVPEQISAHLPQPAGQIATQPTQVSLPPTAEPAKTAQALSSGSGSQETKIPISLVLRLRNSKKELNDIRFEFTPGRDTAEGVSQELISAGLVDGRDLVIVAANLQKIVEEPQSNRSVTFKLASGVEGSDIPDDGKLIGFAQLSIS

p38-alpha = target: T21, p38-alpha (Homo sapiens, UniProt Q16539); assay: KinomeScan; assay type: binding; settings: read-out: % control
T21 construct: purchased DiscoveRx KINOMEscan
T21 sequence (Q16539 whole entry): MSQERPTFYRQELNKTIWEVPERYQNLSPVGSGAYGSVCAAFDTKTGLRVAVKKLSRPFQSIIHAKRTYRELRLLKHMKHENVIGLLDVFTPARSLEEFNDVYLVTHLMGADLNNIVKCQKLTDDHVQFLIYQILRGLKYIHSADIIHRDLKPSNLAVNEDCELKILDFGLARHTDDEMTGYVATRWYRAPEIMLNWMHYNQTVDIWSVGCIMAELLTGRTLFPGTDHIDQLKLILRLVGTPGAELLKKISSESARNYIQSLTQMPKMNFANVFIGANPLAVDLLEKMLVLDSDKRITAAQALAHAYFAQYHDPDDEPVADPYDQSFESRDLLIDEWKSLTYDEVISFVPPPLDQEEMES

p38-delta = target: T22, p38-delta (Homo sapiens, UniProt O15264); assay: KinomeScan; assay type: binding; settings: read-out: % control
T22 construct: purchased DiscoveRx KINOMEscan

PCTK2 = target: T23, PCTK2 (Homo sapiens, UniProt Q00537); assay: KinomeScan; assay type: binding; settings: read-out: % control
T23 construct: purchased DiscoveRx KINOMEscan

PIK3CA(H1047Y) = target: T24, PIK3CA(H1047Y) (Homo sapiens, UniProt P42336, H1047Y); assay: KinomeScan; assay type: binding; settings: read-out: % control
T24 construct: purchased DiscoveRx KINOMEscan

PIP5K2C = target: T25, PIP5K2C (Homo sapiens, UniProt Q8TBX8); assay: KinomeScan; assay type: binding; settings: read-out: % control
T25 construct: purchased DiscoveRx KINOMEscan

PKAC-alpha = target: T26, PKAC-alpha (Homo sapiens, UniProt P17612); assay: KinomeScan; assay type: binding; settings: read-out: % control
T26 construct: purchased DiscoveRx KINOMEscan

PRKCH = target: T27, PRKCH (Homo sapiens, UniProt P24723); assay: KinomeScan; assay type: binding; settings: read-out: % control
T27 construct: purchased DiscoveRx KINOMEscan

RIOK2 = target: T28, RIOK2 (Homo sapiens, UniProt Q9BVS4); assay: KinomeScan; assay type: binding; settings: read-out: % control
T28 construct: purchased DiscoveRx KINOMEscan

RIPK2 = target: T29, RIPK2 (Homo sapiens, UniProt O43353); assay: KinomeScan; assay type: binding; settings: read-out: % control
T29 construct: purchased DiscoveRx KINOMEscan

[4] = target: T30, RSK2(Kin.Dom.2-C-terminal) (Homo sapiens, UniProt P51812); assay: KinomeScan; assay type: binding; settings: read-out: % control
T30 construct: RSK2(Kin.Dom.2-C-terminal); purchased DiscoveRx KINOMEscan

SGK = target: T31, SGK (Homo sapiens, UniProt O00141); assay: KinomeScan; assay type: binding; settings: read-out: % control
T31 construct: purchased DiscoveRx KINOMEscan

TESK1 = target: T32, TESK1 (Homo sapiens, UniProt Q15569); assay: KinomeScan; assay type: binding; settings: read-out: % control
T32 construct: purchased DiscoveRx KINOMEscan

TGFBR1 = target: T33, TGFBR1 (Homo sapiens, UniProt P36897); assay: KinomeScan; assay type: binding; settings: read-out: % control
T33 construct: purchased DiscoveRx KINOMEscan
T33 sequence (P36897 34-503): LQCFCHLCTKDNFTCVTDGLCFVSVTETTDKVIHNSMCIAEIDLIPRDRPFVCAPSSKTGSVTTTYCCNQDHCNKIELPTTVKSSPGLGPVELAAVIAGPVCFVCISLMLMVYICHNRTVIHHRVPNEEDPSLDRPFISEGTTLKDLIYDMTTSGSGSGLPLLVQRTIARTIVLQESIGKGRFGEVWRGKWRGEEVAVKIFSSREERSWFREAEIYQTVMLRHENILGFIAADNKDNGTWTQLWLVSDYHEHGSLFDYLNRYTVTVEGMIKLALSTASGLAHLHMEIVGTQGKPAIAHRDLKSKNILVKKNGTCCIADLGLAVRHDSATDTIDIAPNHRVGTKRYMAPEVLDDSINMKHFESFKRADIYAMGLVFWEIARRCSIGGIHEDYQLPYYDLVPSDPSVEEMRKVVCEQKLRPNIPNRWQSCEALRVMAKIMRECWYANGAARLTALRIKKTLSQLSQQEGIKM

TIE1 = target: T34, TIE1 (Homo sapiens, UniProt P35590); assay: KinomeScan; assay type: binding; settings: read-out: % control
T34 construct: purchased DiscoveRx KINOMEscan
T34 sequence (P35590 22-1138): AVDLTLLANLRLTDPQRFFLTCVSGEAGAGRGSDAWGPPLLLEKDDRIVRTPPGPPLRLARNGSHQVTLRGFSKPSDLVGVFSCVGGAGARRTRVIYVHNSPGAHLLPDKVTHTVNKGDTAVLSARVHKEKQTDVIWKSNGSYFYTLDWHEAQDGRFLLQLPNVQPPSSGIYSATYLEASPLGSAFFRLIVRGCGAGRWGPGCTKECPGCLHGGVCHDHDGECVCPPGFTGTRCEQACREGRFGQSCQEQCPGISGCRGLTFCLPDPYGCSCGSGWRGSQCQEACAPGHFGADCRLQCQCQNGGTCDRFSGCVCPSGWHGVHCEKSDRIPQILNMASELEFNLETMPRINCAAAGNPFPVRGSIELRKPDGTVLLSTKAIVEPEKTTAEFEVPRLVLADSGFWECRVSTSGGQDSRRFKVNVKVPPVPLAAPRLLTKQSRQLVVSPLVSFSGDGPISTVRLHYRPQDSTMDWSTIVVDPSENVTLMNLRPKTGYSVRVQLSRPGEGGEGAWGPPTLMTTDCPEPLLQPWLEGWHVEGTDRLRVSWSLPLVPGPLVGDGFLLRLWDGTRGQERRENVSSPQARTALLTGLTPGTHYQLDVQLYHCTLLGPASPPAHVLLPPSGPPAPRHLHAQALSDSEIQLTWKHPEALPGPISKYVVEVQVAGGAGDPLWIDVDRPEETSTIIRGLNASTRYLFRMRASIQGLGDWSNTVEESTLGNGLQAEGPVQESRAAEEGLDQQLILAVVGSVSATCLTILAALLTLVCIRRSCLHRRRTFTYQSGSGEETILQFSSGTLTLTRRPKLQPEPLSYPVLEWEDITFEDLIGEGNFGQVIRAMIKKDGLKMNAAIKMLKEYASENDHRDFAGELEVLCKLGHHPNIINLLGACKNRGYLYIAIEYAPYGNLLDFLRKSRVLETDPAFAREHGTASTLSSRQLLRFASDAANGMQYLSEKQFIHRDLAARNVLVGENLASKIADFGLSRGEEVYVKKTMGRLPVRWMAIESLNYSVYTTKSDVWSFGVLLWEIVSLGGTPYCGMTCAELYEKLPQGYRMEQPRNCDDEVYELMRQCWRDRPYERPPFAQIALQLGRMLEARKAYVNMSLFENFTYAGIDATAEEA

TNK1 = target: T35, TNK1 (Homo sapiens, UniProt Q13470); assay: KinomeScan; assay type: binding; settings: read-out: % control
T35 construct: purchased DiscoveRx KINOMEscan

TNNI3K = target: T36, TNNI3K (Homo sapiens, UniProt Q59H18); assay: KinomeScan; assay type: binding; settings: read-out: % control
T36 construct: purchased DiscoveRx KINOMEscan

ULK1 = target: T37, ULK1 (Homo sapiens, UniProt O75385); assay: KinomeScan; assay type: binding; settings: read-out: % control
T37 construct: purchased DiscoveRx KINOMEscan

WNK1 = target: T38, WNK1 (Homo sapiens, UniProt Q9H4A3); assay: KinomeScan; assay type: binding; settings: read-out: % control
T38 construct: purchased DiscoveRx KINOMEscan

ZAK = target: T39, ZAK (Homo sapiens, UniProt Q9NYL2); assay: KinomeScan; assay type: binding; settings: read-out: % control
T39 construct: purchased DiscoveRx KINOMEscan

BaF3-TEL-EGFR-L858R = assay: Anti-proliferation, BaF3 isogenic cell lines (CellTiter-Glo); assay type: cell-based; settings: Mus musculus, 72 hours, triplet testing
[5] = tested on: BaF3-FL-EGFR-del19-T790M-C797S; assay: as above; assay type: cell-based; settings: Mus musculus, 72 hours, triplet testing

SMILES: C=CC(=O)N1CCC[C@@H](n2nc(-c3ccc(OCc4cccc(C)n4)c(Cl)c3)c3c(N)ncnc32)C1 [CHMFL-EGFR-26]
- remaining binding at 1 µM [1]: 100%
- remaining binding at 1 µM [2]: 100%
- remaining binding at 1 µM (ALK(L1196M)): 100%
- remaining binding at 1 µM (ANKK1): 94%
- remaining binding at 1 µM (BIKE): 96%
- remaining binding at 1 µM (BRAF(V600E)): 62%
- remaining binding at 1 µM (CAMKK2): 75%
- remaining binding at 1 µM (CIT): 90%
- remaining binding at 1 µM (CLK3): 100%
- remaining binding at 1 µM [3]: 20%
- % control (FLT3(ITD,F691L)): 100%
- remaining binding at 1 µM (GCN2(Kin.Dom.2,S808G)): 90%
- remaining binding at 1 µM (GSK3A): 100%
- remaining binding at 1 µM (HIPK4): 100%
- remaining binding at 1 µM (HPK1): 100%
- remaining binding at 1 µM (LIMK2): 100%
- remaining binding at 1 µM (MAP3K15): 100%
- remaining binding at 1 µM (MAP4K3): 97%
- remaining binding at 1 µM (MAPKAPK5): 100%
- remaining binding at 1 µM (MEK6): 95%
- remaining binding at 1 µM (OSR1): 95%
- remaining binding at 1 µM (p38-alpha): 86%
- remaining binding at 1 µM (p38-delta): 83%
- remaining binding at 1 µM (PCTK2): 89%
- remaining binding at 1 µM (PIK3CA(H1047Y)): 100%
- remaining binding at 1 µM (PIP5K2C): 85%
- remaining binding at 1 µM (PKAC-alpha): 100%
- remaining binding at 1 µM (PRKCH): 70%
- remaining binding at 1 µM (RIOK2): 100%
- remaining binding at 1 µM (RIPK2): 13%
- remaining binding at 1 µM [4]: 100%
- remaining binding at 1 µM (SGK): 100%
- remaining binding at 1 µM (TESK1): 93%
- remaining binding at 1 µM (TGFBR1): 7%
- remaining binding at 1 µM (TIE1): 69%
- remaining binding at 1 µM (TNK1): 64%
- remaining binding at 1 µM (TNNI3K): 89%
- remaining binding at 1 µM (ULK1): 85%
- remaining binding at 1 µM (WNK1): 100%
- remaining binding at 1 µM (ZAK): 100%
- GI50 (BaF3-TEL-EGFR-L858R): < 0.3 nM
- GI50 [5]: 2100 nM
